Values quoted from earlier work as cited in patent publication US20250134923A1, “SUPERABSORBENT HYDROGELS WITH LIPASE INHIBITOR” (JUNION LABS PTE. LTD., priority 2021, published 2025).

Test system: fat absorption
Conditions: therapeutic doses (120 mg with meals)

CCCCCCCCCCC[C@@H](C[C@@H]1OC(=O)[C@H]1CCCCCC)OC(=O)[C@H](CC(C)C)NC=O [Orlistat, (2S,3S,5S)-5-[(S)-2-formamido4-methyl-valeryloxy]-2-hexyl-3-hydroxy-hexadecanoic 1,3 acid lactone]
additional caloric deficit: approximately 200 calories
inhibition of fat absorption (of ingested fat): approximately 30%
